Assay results reported in ChEMBL document CHEMBL1201862, “PubChem BioAssay data set” (2004).
“And” between values parts separate entries of the source, which are not always exact repeats. Identical values can stand only once.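 Protocol summary: plate cells (96-well), add compound at 5 concentrations, incubate 48 h, interpolate endpoints linearly. The concentration for 50% growth inhibition is given as GI50.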 The source made the active and inactive calls. Cut-off read from the data, not from the text of the source: active = GI50 up to about 1.1 µM and inactive = higher.

Key:
Assay in all cases: inhibition of tumour cell growth, NCI panel, 48 h
EKVX = test system: EKVX
HCC 2998 = test system: HCC 2998
HCT-116 = test system: HCT-116
HOP-92 = test system: HOP-92
HT-29 = test system: HT-29
IGROV-1 = test system: IGROV-1
LOX IMVI = test system: LOX IMVI
MDA-N = test system: MDA-N
NCI-H226 = test system: NCI-H226
OVCAR-3 = test system: OVCAR-3
OVCAR-5 = test system: OVCAR-5
RPMI-8226 = test system: RPMI-8226
SF-295 = test system: SF-295
SF-539 = test system: SF-539
SK-OV-3 = test system: SK-OV-3
SNB-19 = test system: SNB-19
SR = test system: SR
SW-620 = test system: SW-620
TK-10 = test system: TK-10
UACC-62 = test system: UACC-62
786-0 = test system: 786-0
A498 = test system: A498
A549 = test system: A549
ACHN = test system: ACHN
CAKI-1 = test system: CAKI-1
HCT-15 = test system: HCT-15
HL-60 = test system: HL-60
Hs-578T = test system: Hs-578T
MDA-MB-435 = test system: MDA-MB-435
MOLT-4 = test system: MOLT-4
Malme-3M = test system: Malme-3M
NCI-H23 = test system: NCI-H23
NCI-H522 = test system: NCI-H522
NCI/ADR-RES = test system: NCI/ADR-RES
OVCAR-4 = test system: OVCAR-4
PC-3 = test system: PC-3
SF-268 = test system: SF-268
SK-MEL-28 = test system: SK-MEL-28
SK-MEL-2 = test system: SK-MEL-2
SK-MEL-5 = test system: SK-MEL-5
T47D = test system: T47D
UACC-257 = test system: UACC-257
CCRF-CEM = test system: CCRF-CEM
COLO 205 = test system: COLO 205
DU-145 = test system: DU-145
HOP-62 = test system: HOP-62
K562 = test system: K562
KM12 = test system: KM12
M14 = test system: M14
MCF7 = test system: MCF7
MDA-MB-231 = test system: MDA-MB-231
OVCAR-8 = test system: OVCAR-8
RXF 393 = test system: RXF 393
SN12C = test system: SN12C
SNB-75 = test system: SNB-75

CN(NC(=O)CC(=O)NN(C)C(=S)c1ccccc1)C(=S)c1ccccc1 [ELESCLOMOL]
GI50 (EKVX): 33.9 µM (inactive)
GI50 (HCC 2998): 64.7 µM (inactive)
GI50 (HCT-116): 62.1 µM (inactive)
GI50 (HOP-92): > 100 µM (inactive)
GI50 (HT-29): < 0.01 µM (active)
GI50 (IGROV-1): > 100 µM (inactive)
GI50 (LOX IMVI): 35.4 µM (inactive)
GI50 (MDA-N): > 100 µM (inactive)
GI50 (NCI-H226): 83.8 µM (inactive)
GI50 (OVCAR-3): > 100 µM (inactive)
GI50 (OVCAR-5): > 100 µM (inactive)
GI50 (RPMI-8226): < 0.01 µM (active)
GI50 (SF-295): 46 µM (inactive)
GI50 (SF-539): > 100 µM (inactive)
GI50 (SK-OV-3): > 100 µM (inactive)
GI50 (SNB-19): 84.7 µM (inactive)
GI50 (SR): 28.3 µM (inactive)
GI50 (SW-620): 67 µM (inactive)
GI50 (TK-10): > 100 µM (inactive)
GI50 (UACC-62): 50.2 µM (inactive)

CN(C)c1ccc(/C=C/c2sc3ccccc3[n+]2C)cc1
GI50 (786-0): 1.82 µM (inactive) and 1.61 µM (inactive)
GI50 (A498): 14.9 µM (inactive) and 12.6 µM (inactive)
GI50 (A549): 2.2 µM (inactive) and 3.82 µM (inactive)
GI50 (ACHN): 1.46 µM (inactive) and 2.2 µM (inactive)
GI50 (CAKI-1): 2.52 µM (inactive) and 3.33 µM (inactive)
GI50 (HCT-15): 4.75 µM and 9.27 µM
GI50 (HL-60): 180 nM (active) and 348 nM (active)
GI50 (HOP-92): 3.65 µM (inactive) and 1.85 µM (inactive)
GI50 (Hs-578T): 4 µM (inactive) and 7.62 µM (inactive)
GI50 (MDA-MB-435): 813 nM (active) and 879 nM (active)
GI50 (MDA-N): 1.16 µM (inactive)
GI50 (MOLT-4): 270 nM (active) and 238 nM (active)
GI50 (Malme-3M): 1.54 µM (inactive) and 1.96 µM (inactive)
GI50 (NCI-H226): 3.71 µM (inactive) and 2.62 µM (inactive)
GI50 (NCI-H23): 1.07 µM (active) and 743 nM (active)
GI50 (NCI-H522): 1.93 µM (inactive) and 1.58 µM (inactive)
GI50 (NCI/ADR-RES): 36.9 µM (inactive) and > 57 µM (inactive)
GI50 (OVCAR-3): 550 nM (active) and 501 nM (active)
GI50 (OVCAR-4): 2.62 µM (inactive) and 2.71 µM (inactive)
GI50 (OVCAR-5): 12.7 µM (inactive) and 10.3 µM (inactive)
GI50 (PC-3): 1.09 µM (active) and 838 nM (active)
GI50 (SF-268): 3.29 µM (inactive) and 3.4 µM (inactive)
GI50 (SF-295): 3.29 µM (inactive) and 6.35 µM (inactive)
GI50 (SF-539): 3.18 µM (inactive) and 4.18 µM (inactive)
GI50 (SK-MEL-28): 1.85 µM (inactive) and 3.44 µM (inactive)
GI50 (SK-MEL-2): 2.82 µM (inactive) and 2.29 µM (inactive)
GI50 (SK-MEL-5): 1.09 µM (active) and 1.7 µM (inactive)
GI50 (SK-OV-3): 4.56 µM (inactive)
GI50 (SNB-19): 2.09 µM (inactive) and 1.99 µM (inactive)
GI50 (SW-620): 433 nM (active) and 427 nM (active)
GI50 (T47D): 2.47 µM (inactive) and 4.05 µM (inactive)
GI50 (TK-10): 5.65 µM (inactive) and 3.37 µM (inactive)
GI50 (UACC-257): 1.82 µM (inactive) and 1.6 µM (inactive)

CCC1(c2ccccc2)Sc2ccccc2-n2cccc2C1=O (stereo unspecified)
GI50 (786-0): > 10 µM (inactive)
GI50 (A549): > 10 µM (inactive)
GI50 (CAKI-1): > 10 µM (inactive)
GI50 (CCRF-CEM): > 10 µM (inactive)
GI50 (COLO 205): > 10 µM (inactive)
GI50 (DU-145): > 10 µM (inactive)
GI50 (EKVX): > 10 µM (inactive)
GI50 (HCC 2998): > 10 µM (inactive)
GI50 (HCT-15): 8.79 µM
GI50 (HL-60): 4.12 µM (inactive)
GI50 (HOP-62): > 10 µM (inactive)
GI50 (HT-29): 9.62 µM (inactive)
GI50 (IGROV-1): > 10 µM (inactive)
GI50 (K562): 4.6 µM (inactive)
GI50 (KM12): 7.8 µM (inactive)
GI50 (M14): > 10 µM (inactive)
GI50 (MCF7): > 10 µM (inactive)
GI50 (MDA-MB-231): 9.31 µM (inactive)
GI50 (MDA-N): 3.5 µM (inactive)
GI50 (MOLT-4): 5.37 µM (inactive)
GI50 (Malme-3M): 8.34 µM (inactive)
GI50 (NCI-H23): > 10 µM (inactive)
GI50 (OVCAR-8): > 10 µM (inactive)
GI50 (PC-3): 8.53 µM (inactive)
GI50 (RPMI-8226): 4.32 µM (inactive)
GI50 (RXF 393): 9.79 µM (inactive)
GI50 (SF-295): > 10 µM (inactive)
GI50 (SK-MEL-28): > 10 µM (inactive)
GI50 (SK-MEL-5): > 10 µM (inactive)
GI50 (SK-OV-3): > 10 µM (inactive)
GI50 (SN12C): > 10 µM (inactive)
GI50 (SNB-75): > 10 µM (inactive)
GI50 (SR): 3.79 µM (inactive)
GI50 (SW-620): > 10 µM (inactive)
GI50 (T47D): > 10 µM (inactive)
GI50 (TK-10): > 10 µM (inactive)
GI50 (UACC-257): > 10 µM (inactive)
GI50 (UACC-62): > 10 µM (inactive)
